ChEMBL document CHEMBL4138254 (ACS Med Chem Lett, 2017)
Converted amounts (≈) assume the structure as drawn.

biological target: T1, Autotaxin (Rattus norvegicus, UniProt Q64610); assay: Inhibition of recombinant rat ATX using LPC 18:1 as substrate after 2 hrs by rapidfire/MS-based analysis; conditions: not given

Compound | IC50
O=C(NC[C@@H]1[C@H]2CN(C(=O)C3CC3c3cc(Cl)cc(Cl)c3)C[C@@H]12)c1ccc2[nH]c(=O)oc2c1 (some centres undefined) | 4.8 nM
O=C(NC[C@@H]1[C@H]2CN(C(=O)NCc3cc(Cl)cc(Cl)c3)C[C@@H]12)c1ccc2[nH]c(=O)oc2c1 | 13.9 nM
N#Cc1cc(COC(=O)N2C[C@@H]3[C@@H](CNC(=O)c4ccc5[nH]nnc5c4)[C@@H]3C2)cc(C(=O)OC(F)(F)F)c1 | 1.5 nM
N#Cc1cc(COC(=O)N2C[C@@H]3[C@@H](CNC(=O)N4CCc5[nH]nnc5C4)[C@@H]3C2)cc(C(=O)OC(F)(F)F)c1 | 1.3 nM
N#Cc1cc(COC(=O)N2C[C@@H]3[C@@H](CNC(=O)c4ccc5[nH]c(=O)oc5c4)[C@@H]3C2)cc(OC(F)(F)F)c1 | 1.9 nM
O=C(NC[C@@H]1[C@H]2CN(C(=O)N3CCc4c(Cl)cc(Cl)cc4C3)C[C@@H]12)c1ccc2[nH]c(=O)oc2c1 | 82.6 nM
O=C(NC[C@@H]1[C@H]2CN(C(=O)OCc3cc(C(F)(F)F)cc(C(F)(F)F)c3)C[C@@H]12)c1ccc2[nH]c(=O)oc2c1 | 2.3 nM
O=C(NC[C@@H]1[C@H]2CN(C(=O)OCc3cc(Cl)cc(Cl)c3)C[C@@H]12)c1ccc2[nH]c(=O)oc2c1 | 3.1 nM
O=C(NC[C@@H]1[C@H]2CN(C(=O)/C=C/c3cc(Cl)cc(Cl)c3)C[C@@H]12)c1ccc2[nH]c(=O)oc2c1 | 1.7 nM

biological target: T1, Autotaxin; assay: Inhibition of ATX in rat whole blood using LPA 17:0 as substrate after 1 hr by LC-MS/MS analysis; conditions: not given

Compound | IC50
O=C(NC[C@@H]1[C@H]2CN(C(=O)C3CC3c3cc(Cl)cc(Cl)c3)C[C@@H]12)c1ccc2[nH]c(=O)oc2c1 (some centres undefined) | 2400 nM
O=C(NC[C@@H]1[C@H]2CN(C(=O)NCc3cc(Cl)cc(Cl)c3)C[C@@H]12)c1ccc2[nH]c(=O)oc2c1 | 77 nM
N#Cc1cc(COC(=O)N2C[C@@H]3[C@@H](CNC(=O)c4ccc5[nH]nnc5c4)[C@@H]3C2)cc(C(=O)OC(F)(F)F)c1 | 18 nM
N#Cc1cc(COC(=O)N2C[C@@H]3[C@@H](CNC(=O)N4CCc5[nH]nnc5C4)[C@@H]3C2)cc(C(=O)OC(F)(F)F)c1 | 33 nM
N#Cc1cc(COC(=O)N2C[C@@H]3[C@@H](CNC(=O)c4ccc5[nH]c(=O)oc5c4)[C@@H]3C2)cc(OC(F)(F)F)c1 | 94 nM
O=C(NC[C@@H]1[C@H]2CN(C(=O)OCc3cc(C(F)(F)F)cc(C(F)(F)F)c3)C[C@@H]12)c1ccc2[nH]c(=O)oc2c1 | 4.5 nM
O=C(NC[C@@H]1[C@H]2CN(C(=O)OCc3cc(Cl)cc(Cl)c3)C[C@@H]12)c1ccc2[nH]c(=O)oc2c1 | 56 nM
O=C(NC[C@@H]1[C@H]2CN(C(=O)/C=C/c3cc(Cl)cc(Cl)c3)C[C@@H]12)c1ccc2[nH]c(=O)oc2c1 | 1900 nM

biological target: Voltage-gated inwardly rectifying potassium channel KCNH2 (Homo sapiens, UniProt Q12809); assay: not given; conditions: not given
Sequence (Q12809 whole entry): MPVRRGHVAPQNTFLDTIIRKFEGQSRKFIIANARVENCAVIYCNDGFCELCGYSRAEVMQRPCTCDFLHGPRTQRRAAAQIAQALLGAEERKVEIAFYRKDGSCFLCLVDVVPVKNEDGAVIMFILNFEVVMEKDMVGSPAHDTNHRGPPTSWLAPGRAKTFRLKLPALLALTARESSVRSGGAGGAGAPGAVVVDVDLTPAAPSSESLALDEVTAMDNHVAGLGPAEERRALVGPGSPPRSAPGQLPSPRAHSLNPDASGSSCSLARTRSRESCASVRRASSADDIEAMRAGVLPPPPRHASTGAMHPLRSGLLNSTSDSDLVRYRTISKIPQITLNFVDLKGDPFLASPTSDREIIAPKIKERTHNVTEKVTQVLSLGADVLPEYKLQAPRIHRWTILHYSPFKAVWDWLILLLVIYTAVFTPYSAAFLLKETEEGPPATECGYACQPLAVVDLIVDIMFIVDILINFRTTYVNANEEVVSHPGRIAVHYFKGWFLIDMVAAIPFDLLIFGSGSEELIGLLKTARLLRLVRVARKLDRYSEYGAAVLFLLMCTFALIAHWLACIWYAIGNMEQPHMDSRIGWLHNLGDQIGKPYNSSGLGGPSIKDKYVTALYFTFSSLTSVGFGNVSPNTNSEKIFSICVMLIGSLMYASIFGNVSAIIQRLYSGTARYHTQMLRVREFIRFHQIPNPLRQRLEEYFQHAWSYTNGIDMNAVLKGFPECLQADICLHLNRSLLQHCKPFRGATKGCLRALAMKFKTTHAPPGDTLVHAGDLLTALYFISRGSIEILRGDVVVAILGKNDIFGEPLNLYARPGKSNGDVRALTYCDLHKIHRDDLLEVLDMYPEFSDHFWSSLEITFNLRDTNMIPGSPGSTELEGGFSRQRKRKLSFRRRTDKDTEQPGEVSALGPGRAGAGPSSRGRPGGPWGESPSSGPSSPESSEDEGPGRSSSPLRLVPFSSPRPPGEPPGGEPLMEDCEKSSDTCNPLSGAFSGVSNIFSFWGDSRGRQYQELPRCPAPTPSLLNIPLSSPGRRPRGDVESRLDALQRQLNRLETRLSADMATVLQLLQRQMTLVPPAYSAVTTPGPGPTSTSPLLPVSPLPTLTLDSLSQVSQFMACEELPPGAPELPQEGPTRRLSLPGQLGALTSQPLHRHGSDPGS

Compound | IC50
O=C(NC[C@@H]1[C@H]2CN(C(=O)C3CC3c3cc(Cl)cc(Cl)c3)C[C@@H]12)c1ccc2[nH]c(=O)oc2c1 (some centres undefined) | 4700 nM
O=C(NC[C@@H]1[C@H]2CN(C(=O)NCc3cc(Cl)cc(Cl)c3)C[C@@H]12)c1ccc2[nH]c(=O)oc2c1 | > 10000 nM
N#Cc1cc(COC(=O)N2C[C@@H]3[C@@H](CNC(=O)c4ccc5[nH]nnc5c4)[C@@H]3C2)cc(C(=O)OC(F)(F)F)c1 | > 10000 nM
N#Cc1cc(COC(=O)N2C[C@@H]3[C@@H](CNC(=O)N4CCc5[nH]nnc5C4)[C@@H]3C2)cc(C(=O)OC(F)(F)F)c1 | > 10000 nM
N#Cc1cc(COC(=O)N2C[C@@H]3[C@@H](CNC(=O)c4ccc5[nH]c(=O)oc5c4)[C@@H]3C2)cc(OC(F)(F)F)c1 | > 10000 nM
O=C(NC[C@@H]1[C@H]2CN(C(=O)OCc3cc(Cl)cc(Cl)c3)C[C@@H]12)c1ccc2[nH]c(=O)oc2c1 | > 10000 nM
O=C(NC[C@@H]1[C@H]2CN(C(=O)/C=C/c3cc(Cl)cc(Cl)c3)C[C@@H]12)c1ccc2[nH]c(=O)oc2c1 | 4200 nM

test system: not listed separately; assay: physchem; conditions: pH 2.2 buffer solution
Description: Aqueous solubility of the compound in pH 2.2 buffer solution after 24 hrs by LC-UV analysis

Compound | solubility at 24 h
O=C(NC[C@@H]1[C@H]2CN(C(=O)C3CC3c3cc(Cl)cc(Cl)c3)C[C@@H]12)c1ccc2[nH]c(=O)oc2c1 (some centres undefined) | < 1 µg/mL
O=C(NC[C@@H]1[C@H]2CN(C(=O)NCc3cc(Cl)cc(Cl)c3)C[C@@H]12)c1ccc2[nH]c(=O)oc2c1 | < 1 µg/mL
N#Cc1cc(COC(=O)N2C[C@@H]3[C@@H](CNC(=O)c4ccc5[nH]nnc5c4)[C@@H]3C2)cc(C(=O)OC(F)(F)F)c1 | < 1 µg/mL
N#Cc1cc(COC(=O)N2C[C@@H]3[C@@H](CNC(=O)N4CCc5[nH]nnc5C4)[C@@H]3C2)cc(C(=O)OC(F)(F)F)c1 | 32 µg/mL (≈ 60 µM)
N#Cc1cc(COC(=O)N2C[C@@H]3[C@@H](CNC(=O)c4ccc5[nH]c(=O)oc5c4)[C@@H]3C2)cc(OC(F)(F)F)c1 | < 1 µg/mL
O=C(NC[C@@H]1[C@H]2CN(C(=O)N3CCc4c(Cl)cc(Cl)cc4C3)C[C@@H]12)c1ccc2[nH]c(=O)oc2c1 | < 1 µg/mL
O=C(NC[C@@H]1[C@H]2CN(C(=O)OCc3cc(C(F)(F)F)cc(C(F)(F)F)c3)C[C@@H]12)c1ccc2[nH]c(=O)oc2c1 | < 1 µg/mL
O=C(NC[C@@H]1[C@H]2CN(C(=O)OCc3cc(Cl)cc(Cl)c3)C[C@@H]12)c1ccc2[nH]c(=O)oc2c1 | < 1 µg/mL
O=C(NC[C@@H]1[C@H]2CN(C(=O)/C=C/c3cc(Cl)cc(Cl)c3)C[C@@H]12)c1ccc2[nH]c(=O)oc2c1 | < 1 µg/mL

test system: not listed separately; assay: physchem; conditions: pH 4.5 buffer solution
Description: Aqueous solubility of the compound in pH 4.5 buffer solution after 24 hrs by LC-UV analysis

Compound | solubility at 24 h
O=C(NC[C@@H]1[C@H]2CN(C(=O)C3CC3c3cc(Cl)cc(Cl)c3)C[C@@H]12)c1ccc2[nH]c(=O)oc2c1 (some centres undefined) | < 1 µg/mL
O=C(NC[C@@H]1[C@H]2CN(C(=O)NCc3cc(Cl)cc(Cl)c3)C[C@@H]12)c1ccc2[nH]c(=O)oc2c1 | < 1 µg/mL
N#Cc1cc(COC(=O)N2C[C@@H]3[C@@H](CNC(=O)c4ccc5[nH]nnc5c4)[C@@H]3C2)cc(C(=O)OC(F)(F)F)c1 | < 1 µg/mL
N#Cc1cc(COC(=O)N2C[C@@H]3[C@@H](CNC(=O)N4CCc5[nH]nnc5C4)[C@@H]3C2)cc(C(=O)OC(F)(F)F)c1 | 26 µg/mL (≈ 48.7 µM)
N#Cc1cc(COC(=O)N2C[C@@H]3[C@@H](CNC(=O)c4ccc5[nH]c(=O)oc5c4)[C@@H]3C2)cc(OC(F)(F)F)c1 | < 1 µg/mL
O=C(NC[C@@H]1[C@H]2CN(C(=O)N3CCc4c(Cl)cc(Cl)cc4C3)C[C@@H]12)c1ccc2[nH]c(=O)oc2c1 | < 1 µg/mL
O=C(NC[C@@H]1[C@H]2CN(C(=O)OCc3cc(C(F)(F)F)cc(C(F)(F)F)c3)C[C@@H]12)c1ccc2[nH]c(=O)oc2c1 | < 1 µg/mL
O=C(NC[C@@H]1[C@H]2CN(C(=O)OCc3cc(Cl)cc(Cl)c3)C[C@@H]12)c1ccc2[nH]c(=O)oc2c1 | < 1 µg/mL
O=C(NC[C@@H]1[C@H]2CN(C(=O)/C=C/c3cc(Cl)cc(Cl)c3)C[C@@H]12)c1ccc2[nH]c(=O)oc2c1 | < 1 µg/mL

test system: not listed separately; assay: physchem; conditions: pH 6.8 buffer solution
Description: Aqueous solubility of the compound in pH 6.8 buffer solution after 24 hrs by LC-UV analysis

Compound | solubility at 24 h
O=C(NC[C@@H]1[C@H]2CN(C(=O)C3CC3c3cc(Cl)cc(Cl)c3)C[C@@H]12)c1ccc2[nH]c(=O)oc2c1 (some centres undefined) | < 1 µg/mL
O=C(NC[C@@H]1[C@H]2CN(C(=O)NCc3cc(Cl)cc(Cl)c3)C[C@@H]12)c1ccc2[nH]c(=O)oc2c1 | < 1 µg/mL
N#Cc1cc(COC(=O)N2C[C@@H]3[C@@H](CNC(=O)c4ccc5[nH]nnc5c4)[C@@H]3C2)cc(C(=O)OC(F)(F)F)c1 | < 1 µg/mL
N#Cc1cc(COC(=O)N2C[C@@H]3[C@@H](CNC(=O)N4CCc5[nH]nnc5C4)[C@@H]3C2)cc(C(=O)OC(F)(F)F)c1 | 5 µg/mL (≈ 9.37 µM)
N#Cc1cc(COC(=O)N2C[C@@H]3[C@@H](CNC(=O)c4ccc5[nH]c(=O)oc5c4)[C@@H]3C2)cc(OC(F)(F)F)c1 | < 1 µg/mL
O=C(NC[C@@H]1[C@H]2CN(C(=O)N3CCc4c(Cl)cc(Cl)cc4C3)C[C@@H]12)c1ccc2[nH]c(=O)oc2c1 | < 1 µg/mL
O=C(NC[C@@H]1[C@H]2CN(C(=O)OCc3cc(C(F)(F)F)cc(C(F)(F)F)c3)C[C@@H]12)c1ccc2[nH]c(=O)oc2c1 | < 1 µg/mL
O=C(NC[C@@H]1[C@H]2CN(C(=O)OCc3cc(Cl)cc(Cl)c3)C[C@@H]12)c1ccc2[nH]c(=O)oc2c1 | < 1 µg/mL
O=C(NC[C@@H]1[C@H]2CN(C(=O)/C=C/c3cc(Cl)cc(Cl)c3)C[C@@H]12)c1ccc2[nH]c(=O)oc2c1 | < 1 µg/mL

test system: not listed separately; assay: in vitro; conditions: human, liver microsomes
Description: Clearance in human liver microsomes at 1 uM in presence of NADPH by LC-MS/MS analysis relative to hepatic blood flow

Compound | hepatic extraction ratio at 1 µM
O=C(NC[C@@H]1[C@H]2CN(C(=O)NCc3cc(Cl)cc(Cl)c3)C[C@@H]12)c1ccc2[nH]c(=O)oc2c1 | 0.36
N#Cc1cc(COC(=O)N2C[C@@H]3[C@@H](CNC(=O)c4ccc5[nH]nnc5c4)[C@@H]3C2)cc(C(=O)OC(F)(F)F)c1 | 0.29
N#Cc1cc(COC(=O)N2C[C@@H]3[C@@H](CNC(=O)N4CCc5[nH]nnc5C4)[C@@H]3C2)cc(C(=O)OC(F)(F)F)c1 | 0.44
N#Cc1cc(COC(=O)N2C[C@@H]3[C@@H](CNC(=O)c4ccc5[nH]c(=O)oc5c4)[C@@H]3C2)cc(OC(F)(F)F)c1 | 0.48
O=C(NC[C@@H]1[C@H]2CN(C(=O)OCc3cc(Cl)cc(Cl)c3)C[C@@H]12)c1ccc2[nH]c(=O)oc2c1 | 0.41
O=C(NC[C@@H]1[C@H]2CN(C(=O)/C=C/c3cc(Cl)cc(Cl)c3)C[C@@H]12)c1ccc2[nH]c(=O)oc2c1 | 0.25

test system: not listed separately; assay: in vitro; conditions: rat, liver microsomes
Description: Clearance in rat liver microsomes at 1 uM in presence of NADPH by LC-MS/MS analysis relative to hepatic blood flow

Compound | hepatic extraction ratio at 1 µM
O=C(NC[C@@H]1[C@H]2CN(C(=O)C3CC3c3cc(Cl)cc(Cl)c3)C[C@@H]12)c1ccc2[nH]c(=O)oc2c1 (some centres undefined) | > 0.22
O=C(NC[C@@H]1[C@H]2CN(C(=O)NCc3cc(Cl)cc(Cl)c3)C[C@@H]12)c1ccc2[nH]c(=O)oc2c1 | 0.35
N#Cc1cc(COC(=O)N2C[C@@H]3[C@@H](CNC(=O)c4ccc5[nH]nnc5c4)[C@@H]3C2)cc(C(=O)OC(F)(F)F)c1 | 0.28
N#Cc1cc(COC(=O)N2C[C@@H]3[C@@H](CNC(=O)N4CCc5[nH]nnc5C4)[C@@H]3C2)cc(C(=O)OC(F)(F)F)c1 | 0.43
N#Cc1cc(COC(=O)N2C[C@@H]3[C@@H](CNC(=O)c4ccc5[nH]c(=O)oc5c4)[C@@H]3C2)cc(OC(F)(F)F)c1 | 0.56
O=C(NC[C@@H]1[C@H]2CN(C(=O)N3CCc4c(Cl)cc(Cl)cc4C3)C[C@@H]12)c1ccc2[nH]c(=O)oc2c1 | 0.53
O=C(NC[C@@H]1[C@H]2CN(C(=O)OCc3cc(Cl)cc(Cl)c3)C[C@@H]12)c1ccc2[nH]c(=O)oc2c1 | 0.64
O=C(NC[C@@H]1[C@H]2CN(C(=O)/C=C/c3cc(Cl)cc(Cl)c3)C[C@@H]12)c1ccc2[nH]c(=O)oc2c1 | > 0.22

test system: not listed separately; assay: in vitro; conditions: human, Caco-2
Description: Apparent permeability across apical to basolateral side in human Caco2 cells at 10 uM measured up to 90 mins

Compound | Papp A→B at 1.5 h, 10 µM
O=C(NC[C@@H]1[C@H]2CN(C(=O)C3CC3c3cc(Cl)cc(Cl)c3)C[C@@H]12)c1ccc2[nH]c(=O)oc2c1 (some centres undefined) | 64 ×10⁻⁶ cm/s
O=C(NC[C@@H]1[C@H]2CN(C(=O)NCc3cc(Cl)cc(Cl)c3)C[C@@H]12)c1ccc2[nH]c(=O)oc2c1 | 2 ×10⁻⁶ cm/s
N#Cc1cc(COC(=O)N2C[C@@H]3[C@@H](CNC(=O)c4ccc5[nH]nnc5c4)[C@@H]3C2)cc(C(=O)OC(F)(F)F)c1 | 8 ×10⁻⁶ cm/s
N#Cc1cc(COC(=O)N2C[C@@H]3[C@@H](CNC(=O)N4CCc5[nH]nnc5C4)[C@@H]3C2)cc(C(=O)OC(F)(F)F)c1 | 7 ×10⁻⁶ cm/s
N#Cc1cc(COC(=O)N2C[C@@H]3[C@@H](CNC(=O)c4ccc5[nH]c(=O)oc5c4)[C@@H]3C2)cc(OC(F)(F)F)c1 | 44 ×10⁻⁶ cm/s
O=C(NC[C@@H]1[C@H]2CN(C(=O)N3CCc4c(Cl)cc(Cl)cc4C3)C[C@@H]12)c1ccc2[nH]c(=O)oc2c1 | 47 ×10⁻⁶ cm/s
O=C(NC[C@@H]1[C@H]2CN(C(=O)OCc3cc(C(F)(F)F)cc(C(F)(F)F)c3)C[C@@H]12)c1ccc2[nH]c(=O)oc2c1 | 108 ×10⁻⁶ cm/s
O=C(NC[C@@H]1[C@H]2CN(C(=O)OCc3cc(Cl)cc(Cl)c3)C[C@@H]12)c1ccc2[nH]c(=O)oc2c1 | 137 ×10⁻⁶ cm/s
O=C(NC[C@@H]1[C@H]2CN(C(=O)/C=C/c3cc(Cl)cc(Cl)c3)C[C@@H]12)c1ccc2[nH]c(=O)oc2c1 | 38 ×10⁻⁶ cm/s
